In patent US12721856B2, “Psilocybin compositions, methods of making and methods of using the same” (priority 2021, dated 2026):
≈ marks a conversion by molar mass, not a printed value.

Experiment: Solubility in water
Assay type: physicochemical
From the text: The psilocybin in the form Polymorph A or A′ has the general properties illustrated in Table 5 below: […]

Work on CN(C)CCc1c[nH]c2cccc(OP(=O)(O)O)c12 [Psilocybin] yielded a solubility of roughly 15 mg/mL (≈ 52.8 mM).
